Data taken from patent publication US20260049104A1, “PEPTIDES WITH ANTIMICROBIAL PROPERTIES” (priority 2022, published 2026).
≈ marks a conversion by molar mass, not a printed value. Like-named read-outs stand apart in the source and are kept apart here. No end group written: not given here.

Experiments:
Pseudomonas aeruginosa = assay type: cell-based; conditions: Table 15, unit inferred
Excerpt: The experiments were repeated three times.

Acinetobacter baumannii = conditions: Table 15, unit inferred
Method: (§1) MIC screening of the peptides against a panel of ATCC and clinical strains was performed using broth microdilution method.^1 Briefly, peptides stock solutions in DMSO (0.1/G TFA) were diluted into Mueller Hinton Broth (MHB), followed by two-fold serial dilution in a 96-well plate. Bacteria culture in mid-log phase was diluted into MHB to yield […] colony-forming units (CFU)/mL. Equal volume of the starting inoculum was added to the peptide samples, then incubated for 18-20 h (37° C., 120 rpm). OD600 of the samples was then measured using Tecan Infinite M200 (TECAN, Männedorf, Switzerland). MIC is defined as the lowest peptide concentration to achieve more than 90% reduction in OD600 relative to the drug-free control. The experiments were repeated three times. Colistin-resistant clinical isolates are a kind gift from Dr. Jeanette Koh (National University Hospital, Singapore). Multidrug-resistant clinical isolates are a kind gift from Dr. Lakshminarayanan Rajamani (Singapore Eye Research Institute, Singapore).
(§2) Kanamycin and ampicillin were used as antibacterial control agents. […] Then, sequential 2-fold serial dilutions of the mix were diluted in 50 μL MH broth and 50 μL cell cultures were added to wells. […] All assays were carried out in triplicate.

Enterobacter cloacae = conditions: Table 15, unit inferred
Method: as §1, §2

Escherichia coli = conditions: for MIC value: Table 15, unit inferred
Method: as §1, §2

Klebsiella pneumoniae = conditions: for MIC value: Table 15, unit inferred
Method: as §1, §2

[1] = test system: Gram-positive and Gram-negative bacteria; conditions: panel of E. coli, K. pneumoniae, E. cloacae, A. baumannii, E. faecalis and S. aureus; preliminary screening
Method: as §1, §2

[2] = Pseudomonas aeruginosa DR4877/07
[3] = Pseudomonas aeruginosa DR5790/07
[4] = Acinetobacter baumanii ACβA1001
[5] = Acinetobacter baumanii ACβA1002
[6] = Acinetobacter baumanii ACβA1003
[7] = Acinetobacter baumanii ACβA1004
[8] = ATCC 25922, printed under Klebsiella pneumoniae

Row | Compound | MIC value (Pseudomonas aeruginosa; Pseudomonas aeruginosa DM4150R) | MIC value (Pseudomonas aeruginosa; Pseudomonas aeruginosa DM23376) | MIC value (Pseudomonas aeruginosa; [2]) | MIC value (Pseudomonas aeruginosa; [3]) | MIC value (Acinetobacter baumannii; [4]) | MIC value (Acinetobacter baumannii; [5]) | MIC value (Acinetobacter baumannii; [6]) | MIC value (Acinetobacter baumannii; [7]) | MIC value (Enterobacter cloacae; Enterobacter cloacae CRE1010) | MIC value (Enterobacter cloacae; Enterobacter cloacae CRE1014) | MIC value (Enterobacter cloacae; Enterobacter cloacae CRE1015) | MIC value (Enterobacter cloacae; Enterobacter cloacae CRE1016) | MIC value (Enterobacter cloacae; Enterobacter cloacae CRE1017) | MIC value (Escherichia coli; Escherichia coli M2) | MIC value (Escherichia coli; Escherichia coli M6) | MIC value (Escherichia coli; Escherichia coli M10) | MIC value (Escherichia coli; Escherichia coli M11) | MIC value (Klebsiella pneumoniae; [8]) | MIC value (Klebsiella pneumoniae; CRE1006, Klebsiella pneumoniae) | MIC value (Klebsiella pneumoniae; Klebsiella pneumoniae CRE 1007) | other results
1 | CC(C)[C@@H]1NC(=O)[C@@H](N)Cc2c[nH]c3cc(ccc23)C(C(N)=O)[C@@H](C(=O)N[C@@H](C)C(=O)N[C@H]2Cc3cccc(c3)C(CCNC(=N)N)[C@@H](C(=O)N[C@H]3Cc4c[nH]c5cc(ccc45)C(CCNC(=N)N)[C@@H](C(=O)N[C@@H](CCCNC(=N)N)C(=O)N[C@@H](Cc4c[nH]c5ccccc45)C(=O)O)NC(=O)[C@H](CO)NC3=O)NC(=O)[C@H](C)NC2=O)NC1=O (stereo partly drawn) [xenorceptide A11] | 16 µg/mL (≈ 9.82 µM) | 16 µg/mL (≈ 9.82 µM) | 32 µg/mL (≈ 19.6 µM) | 32 µg/mL (≈ 19.6 µM) | 16 µg/mL (≈ 9.82 µM) | 16 µg/mL (≈ 9.82 µM) | 16 µg/mL (≈ 9.82 µM) | 16 µg/mL (≈ 9.82 µM) | 4 µg/mL (≈ 2.46 µM) | 8 µg/mL (≈ 4.91 µM) | 16 µg/mL (≈ 9.82 µM) | 8 µg/mL (≈ 4.91 µM) | 16 µg/mL (≈ 9.82 µM) | 8 µg/mL (≈ 4.91 µM) | 4 µg/mL (≈ 2.46 µM) | 2 µg/mL (≈ 1.23 µM) | 4 µg/mL (≈ 2.46 µM) | 1 µg/mL (≈ 0.614 µM) | 4 µg/mL (≈ 2.46 µM) | 4 µg/mL (≈ 2.46 µM) | MIC value (Klebsiella pneumoniae; Klebsiella pneumoniae CRE1008): 4 µg/mL (≈ 2.46 µM); MIC value (Klebsiella pneumoniae; Klebsiella pneumoniae CRE1011): 4 µg/mL (≈ 2.46 µM); MIC value (Klebsiella pneumoniae; Klebsiella pneumoniae CRE1012): 4 µg/mL (≈ 2.46 µM)
2 | CC[C@H](C)[C@H](NC(=O)CNC(=O)[C@H](CC(=O)O)NC(=O)[C@H](CC(=O)O)NC(=O)[C@H](CC(=O)O)NC(=O)[C@H](CO)NC(=O)[C@@H](N)CO)C(=O)N[C@H]1Cc2ccc(cc2)C(CCCN)[C@@H](C(=O)N[C@H](C(=O)N[C@H](C(=O)N[C@H]2Cc3c[nH]c4cc(ccc34)C(CCNC(=N)N)[C@@H](C(=O)N[C@@H](CCCNC(=N)N)C(=O)O)NC(=O)[C@H](CC(=O)O)NC2=O)[C@@H](C)O)[C@@H](C)O)NC(=O)[C@H](Cc2ccccc2)NC1=O (stereo partly drawn) [Compound 22] | – | – | – | – | – | – | – | – | – | – | – | – | – | – | – | – | – | – | – | – | antibacterial activity [1]: no activity
3 | WVNAYARWTKRF [SEQ ID 26] | – | – | – | – | – | – | – | – | – | – | – | – | – | – | – | – | – | – | – | – | MIC (E. coli) (Escherichia coli; strain not stated, product produced and tested against E. coli): 8 µg/mL
4 | CC[C@H](C)[C@@H]1NC(=O)[C@@H](NC(=O)[C@H]2NC(=O)[C@H](CC(C)C)NC(=O)[C@@H](NC(=O)[C@H](CCCNC(=N)N)NC(=O)CNC(=O)[C@@H](N)CC(=O)O)Cc3c[nH]c4cc(ccc34)C2CC(N)=O)Cc2c[nH]c3cc(ccc23)C(CCCN)[C@@H](C(=O)N[C@@H](CC(N)=O)C(=O)N[C@@H](Cc2c[nH]cn2)C(=O)O)NC1=O (stereo partly drawn) [Compound 27] | – | – | – | – | – | – | – | – | – | – | – | – | – | – | – | – | – | – | – | – | MIC (Klebsiella pneumoniae; Klebsiella pneumoniae ATC 700603, Table 14, preliminary screening): 8 µg/mL (≈ 5.52 µM)
5 | CC(C)C[C@H](NC(=O)[C@H]1NC(=O)[C@H](Cc2ccccc2)NC(=O)[C@@H](NC(=O)[C@@H](NC(=O)[C@H](CCC(=O)O)NC(=O)[C@H](C)NC(=O)[C@@H](NC(=O)[C@H](CO)NC(=O)[C@H](C)N)[C@@H](C)O)[C@@H](C)O)Cc2c[nH]c3cc(ccc23)C1CCCN)C(=O)N[C@@H](CC(=O)O)C(=O)N[C@H]1Cc2c[nH]c3cc(ccc23)C(CCCN)[C@@H](C(=O)N[C@@H](CO)C(=O)N[C@@H](Cc2ccccc2)C(=O)O)NC(=O)[C@H](CCCCN)NC1=O (stereo partly drawn) [Compound 21] | – | – | – | – | – | – | – | – | – | – | – | – | – | – | – | – | – | – | – | – | antibacterial activity [1]: no activity
6 | Xenorceptide B1 (GDRWLKWIKNH; listed as Photorhabdus laumondii) | > 32 µg/mL | > 32 µg/mL | > 32 µg/mL | > 32 µg/mL | > 32 µg/mL | > 32 µg/mL | > 32 µg/mL | > 32 µg/mL | > 32 µg/mL | > 32 µg/mL | > 32 µg/mL | > 32 µg/mL | > 32 µg/mL | > 32 µg/mL | > 32 µg/mL | > 32 µg/mL | > 32 µg/mL | > 32 µg/mL | > 32 µg/mL | > 32 µg/mL | MIC value (Acinetobacter baumannii; Acinetobacter baumanii ATCC 19606): > 32 µg/mL; MIC value (Enterobacter cloacae; Enterobacter cloacae ATCC 13047): > 32 µg/mL; MIC value (Klebsiella pneumoniae; Klebsiella pneumoniae CRE1008): > 32 µg/mL; MIC value (Klebsiella pneumoniae; Klebsiella pneumoniae CRE1011): > 32 µg/mL; MIC value (Klebsiella pneumoniae; Klebsiella pneumoniae CRE1012): > 32 µg/mL
7 | CC(C)[C@@H]1NC(=O)[C@@H](N)Cc2c[nH]c3cc(ccc23)C(C(N)=O)[C@@H](C(=O)N[C@@H](C)C(=O)N[C@H]2Cc3cccc(c3)C(CCNC(=N)N)[C@@H](C(=O)N[C@H]3Cc4c[nH]c5cc(ccc45)C(CCCN)[C@@H](C(=O)N[C@@H](CCCNC(=N)N)C(=O)N[C@@H](Cc4ccccc4)C(=O)O)NC(=O)[C@H](CO)NC3=O)NC(=O)[C@H](C)NC2=O)NC1=O (stereo partly drawn) [xenorceptide A12-2] | 32 µg/mL (≈ 20.5 µM) | 32 µg/mL (≈ 20.5 µM) | 32 µg/mL (≈ 20.5 µM) | 32 µg/mL (≈ 20.5 µM) | 16 µg/mL (≈ 10.2 µM) | 8 µg/mL (≈ 5.12 µM) | 16 µg/mL (≈ 10.2 µM) | 16 µg/mL (≈ 10.2 µM) | 2 µg/mL (≈ 1.28 µM) | 32 µg/mL (≈ 20.5 µM) | 16 µg/mL (≈ 10.2 µM) | 16 µg/mL (≈ 10.2 µM) | 32 µg/mL (≈ 20.5 µM) | 4 µg/mL (≈ 2.56 µM) | 2 µg/mL (≈ 1.28 µM) | 2 µg/mL (≈ 1.28 µM) | 4 µg/mL (≈ 2.56 µM) | 1 µg/mL (≈ 0.64 µM) | 2 µg/mL (≈ 1.28 µM) | 4 µg/mL (≈ 2.56 µM) | MIC value (Klebsiella pneumoniae; Klebsiella pneumoniae CRE1008): 4 µg/mL (≈ 2.56 µM); MIC value (Klebsiella pneumoniae; Klebsiella pneumoniae CRE1011): 8 µg/mL (≈ 5.12 µM); MIC value (Klebsiella pneumoniae; Klebsiella pneumoniae CRE1012): 4 µg/mL (≈ 2.56 µM)
